According to article PMC4148444, “P. aeruginosa SGNH Hydrolase-Like Proteins AlgJ and AlgX Have Similar Topology but Separate and Distinct Roles in Alginate Acetylation” (PLoS Pathogens, 2014):

Experiments:
[1] = target: T1, PaAlgJ79–379 (Pseudomonas aeruginosa, UniProt Q51393); assay: direct ESI-MS binding assay; conditions: 50 mM ammonium acetate, pH 7, 298 K; only folded (low charge state) fraction used, its concentration not accurately known; read-out: Apparent K a (M^-1) AlgJ
T1 construct: gene algJ; soluble periplasmic domain 79-379 without TM helix 12-29; N-terminal His6 thrombin-cleaved; expressed in E. coli BL21-CodonPlus; monomer by SEC
Excerpt: direct ESI-MS binding assay on PaAlgJ79–379

[2] = target: T2, PaAlgX27–474 (Pseudomonas aeruginosa, UniProt Q51372); assay: direct ESI-MS binding assay; conditions: 50 mM ammonium acetate, pH 7, 298 K; corrected for nonspecific binding; site (active site or CBM) not resolved; read-out: Apparent K a (M^-1) AlgX
T2 construct: gene algX; residues 27-474 (mature protein, SGNH hydrolase-like domain plus C-terminal CBM)
Excerpt: direct ESI-MS binding assay on PaAlgX27–474

[3] = tested on: CC(=O)Oc1ccc2cc(C(=O)O)c(=O)oc2c1; assay: purified protein; conditions: up to 10% DMSO, kcat given as (×10^3 s^-1), kcat/Km implies ×10^-3, 25.0 °C
[4] = tested on: CC(=O)Oc1ccc2cc(C(=O)O)c(=O)oc2c1; assay: fluorescence acetylesterase assay; type: biochemical, Pseudomonas putida; conditions: 50 mM sodium HEPES pH 7.0, 298 K, up to 10% DMSO, kcat given as (×10^3 s^-1), kcat/Km implies ×10^-3, 25.0 °C
Excerpt: fluorescence acetylesterase assay on PpAlgJ75–370

[5] = 50 mM sodium HEPES pH 7.0, 298 K
[6] = 50 mM sodium HEPES pH 8.0, 298 K

T2 sequence (Q51372 27-474): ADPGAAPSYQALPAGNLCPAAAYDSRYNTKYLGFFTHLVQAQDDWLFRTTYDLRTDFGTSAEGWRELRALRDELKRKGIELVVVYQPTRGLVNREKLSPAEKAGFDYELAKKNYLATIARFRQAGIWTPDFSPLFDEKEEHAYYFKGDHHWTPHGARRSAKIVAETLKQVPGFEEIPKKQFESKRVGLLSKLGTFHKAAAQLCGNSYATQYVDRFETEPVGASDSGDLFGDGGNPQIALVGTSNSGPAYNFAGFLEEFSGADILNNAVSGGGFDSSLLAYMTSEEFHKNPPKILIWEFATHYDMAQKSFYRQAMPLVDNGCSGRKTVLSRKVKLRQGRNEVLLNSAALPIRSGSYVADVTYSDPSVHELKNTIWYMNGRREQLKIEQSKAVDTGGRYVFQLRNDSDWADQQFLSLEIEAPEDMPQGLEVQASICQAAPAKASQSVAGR
T1 sequence (Q51393 79-379): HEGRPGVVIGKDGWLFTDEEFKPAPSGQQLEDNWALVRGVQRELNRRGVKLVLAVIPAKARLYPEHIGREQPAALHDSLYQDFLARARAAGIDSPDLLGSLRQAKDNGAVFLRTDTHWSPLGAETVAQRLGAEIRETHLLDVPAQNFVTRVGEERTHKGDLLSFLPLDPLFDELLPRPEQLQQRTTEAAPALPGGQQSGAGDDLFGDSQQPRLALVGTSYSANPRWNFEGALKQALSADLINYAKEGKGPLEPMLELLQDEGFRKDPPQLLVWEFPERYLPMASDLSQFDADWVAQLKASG

`O=C(O)C1OC(OC2C(C(=O)O)OC(OC3C(C(=O)O)OC(OC4C(C(=O)O)OC(O)C(O)C4O)C(O)C3O)C(O)C2O)C(O)C(O)C1O` (stereo not shown) [ManA4] was tested, and the Kd [1] was > 2000 µM and the Kd [2] was 1000 µM.

With `O=C(O)C1OC(OC2C(C(=O)O)OC(OC3C(C(=O)O)OC(OC4C(C(=O)O)OC(OC5C(C(=O)O)OC(O)C(O)C5O)C(O)C4O)C(O)C3O)C(O)C2O)C(O)C(O)C1O` (stereo not shown) [ManA5] the Kd [1] was > 2000 µM and the Kd [2] was 1000 µM.

For `CCCO[C@@H]1O[C@H](C(=O)O)[C@@H](O[C@@H]2O[C@H](C(=O)O)[C@@H](O[C@@H]3O[C@H](C(=O)O)[C@@H](O[C@@H]4O[C@H](C(=O)O)[C@@H](O[C@@H]5O[C@H](C(=O)O)[C@@H](O[C@@H]6O[C@H](C(=O)O)[C@@H](O)[C@H](O)[C@@H]6O)[C@H](O)[C@@H]5O)[C@H](O)[C@@H]4O)[C@H](O)[C@@H]3O)[C@H](O)[C@@H]2O)[C@H](O)[C@@H]1O` [ManA6], the Kd [1] was > 2000 µM and the Kd [2] was 312 µM.

ManA7 was tested, and the Kd [1] was > 2000 µM and the Kd [2] was 208 µM.

With ManA8 the Kd [2] was 172 µM.

Compound ManA9 has a Kd [2] of 114 µM.

Compound ManA10 has a Kd [2] of 100 µM.

Compound ManA11 has a Kd [2] of 62.5 µM.

In the case of ManA12, the Kd [2] is reported as 52.6 µM.

In the case of “PaAlgJ79–379 (Pseudomonas aeruginosa PAO1)”, the Km [3, 5] is reported as 1160 ± 120 µM, the kcat [3, 5] is reported as 3.44±0.129 ×10^-3 s^-1 and the kcat/Km [3, 5] is reported as 2.96 ± 0.324 M⁻¹ s⁻¹.

For “PaAlgX27–474 (Pseudomonas aeruginosa PAO1)”, the Km [3, 6] was 1100 ± 96 µM, the kcat [3, 6] was 11.4±0.343 ×10^-3 s^-1 and the kcat/Km [3, 6] was 10.3 ± 0.961 M⁻¹ s⁻¹.

For “PpAlgJ75–370 (Pseudomonas putida KT2440)”, the Km [4] was 2300 ± 96.3 µM, the kcat [4] was 7.80±0.155 ×10^-3 s^-1 and the kcat/Km [4] was 3.39 ± 0.0688 M⁻¹ s⁻¹.
